Legend:
FER = target: T1, FER (Homo sapiens, UniProt P16591); assay: scanMAX Kinase panel (DiscoverX); format: binding; conditions: read-out: % Cont @ 1 uM
T1 construct: purchased DiscoverX scanMAX Kinase panel
How it was run: (§1)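 Single-point screen: 1 μM compound in DMSO. Value = % control, normalised between positive (0) and negative (100) controls.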

FGR = target: T2, FGR (Homo sapiens, UniProt P09769); assay: scanMAX Kinase panel (DiscoverX); format: binding; conditions: read-out: % Cont @ 1 uM
T2 construct: purchased DiscoverX scanMAX Kinase panel
How it was run: as §1

FLT3(K663Q) = target: T3, FLT3(K663Q) (Homo sapiens, UniProt P36888, K663Q); assay: scanMAX Kinase panel (DiscoverX); format: binding; conditions: read-out: % Cont @ 1 uM
T3 construct: purchased DiscoverX scanMAX Kinase panel
How it was run: as §1

KIT(V559D, V654A) = target: T4, KIT(V559D, V654A) (Homo sapiens, UniProt P10721, V559D/V654A); assay: scanMAX Kinase panel (DiscoverX); format: binding; conditions: read-out: % Cont @ 1 uM
T4 construct: purchased DiscoverX scanMAX Kinase panel
How it was run: as §1

MAP4K4 = target: T5, MAP4K4 (Homo sapiens, UniProt O95819); assay: scanMAX Kinase panel (DiscoverX); format: binding; conditions: read-out: % Cont @ 1 uM
T5 construct: purchased DiscoverX scanMAX Kinase panel
How it was run: as §1

NEK4 = target: T6, NEK4 (Homo sapiens, UniProt P51957); assay: scanMAX Kinase panel (DiscoverX); format: binding; conditions: read-out: % Cont @ 1 uM
T6 construct: purchased DiscoverX scanMAX Kinase panel
How it was run: as §1

[1] = oral pharmacokinetic test; format: in vivo, SD rats; conditions: SD, plasma; rat, 10 mg/Kg PO, vehicle A (NMP:PEG400=5:95)
Procedure: To evaluate the pharmacokinetic properties in vivo, oral pharmacokinetic test was performed with the compounds of Comparative Examples 1 and 4 and Examples 1 and 4 using mice and rats, and the PK parameters are shown in Table 10.
ICR mice (6-7 weeks old) and SD rats (6-7 weeks old) were used for the test. The fasted group was fasted about 16 hours before oral administration, and the fed group was fasted about 4 hours before oral administration. The test drug for oral administration was used by dissolving the drug in a vehicle at a concentration of 1 mg/mL for use, and blood samples were collected (time point: 0.25, 0.5, 1, 2, 4, 8, 12, 24, 32, n=3) from the heart (mouse, 500 μL/time point) or jugular vein (rat, 120 μL/time point). Blood was centrifuged at 12,000 G at 4° C. for 2 minutes to separate plasma, and stored at −80° C. until analysis. • Vehicle A (NMP:PEG400=5:95) • Vehicle B (0.5% methyl cellulose) 6-2. Sampling and Pretreatment
To 20 μl of plasma, 180 μl of acetonitrile (including internal standard) was added. The mixture was vortexed and centrifuged for 5 minutes at 15,000 rpm at 4° C. The supernatant obtained after centrifugation was analyzed by LC-MS/MS.
PK parameters were calculated with a non-compartmental analysis model using Phoenix WinNonlin 6.4 version (Pharsight, USA) program.

[2] = test system: Luc_Ba/F3 T315I-Bcr-Abl cell line; assay: in vivo pharmacological activity, blood cancer mouse model; design: species or system nude mice; conditions: for day after the administration on which all subjects died (FIG. 3): vehicle group: day 21
Procedure: After the mice were adapted to an animal facility for 1 week, the Luc_Ba/F3 T315I-Bcr-Abl cell line emitting luciferase was transplanted into the caudal vein at the density of 5×10^6/animal. Group separation was performed 3 days after the cell line transplantation. On the day of the group separation, 10 mice were randomly assigned to each group of 5 groups so that the luminescence values were equal after luminescence measurement using IVIS spectrum-CT optical imaging equipment.
In addition, the body weight and survival rate of each experimental group were monitored.
Statistical analysis was performed using GraphPad Prism 8, and the statistical significance of the survival rate was confirmed using unpaired t test and log-rank (Mantel-Cox) test.

T4 sequence (P10721 26-976 V559D/V654A): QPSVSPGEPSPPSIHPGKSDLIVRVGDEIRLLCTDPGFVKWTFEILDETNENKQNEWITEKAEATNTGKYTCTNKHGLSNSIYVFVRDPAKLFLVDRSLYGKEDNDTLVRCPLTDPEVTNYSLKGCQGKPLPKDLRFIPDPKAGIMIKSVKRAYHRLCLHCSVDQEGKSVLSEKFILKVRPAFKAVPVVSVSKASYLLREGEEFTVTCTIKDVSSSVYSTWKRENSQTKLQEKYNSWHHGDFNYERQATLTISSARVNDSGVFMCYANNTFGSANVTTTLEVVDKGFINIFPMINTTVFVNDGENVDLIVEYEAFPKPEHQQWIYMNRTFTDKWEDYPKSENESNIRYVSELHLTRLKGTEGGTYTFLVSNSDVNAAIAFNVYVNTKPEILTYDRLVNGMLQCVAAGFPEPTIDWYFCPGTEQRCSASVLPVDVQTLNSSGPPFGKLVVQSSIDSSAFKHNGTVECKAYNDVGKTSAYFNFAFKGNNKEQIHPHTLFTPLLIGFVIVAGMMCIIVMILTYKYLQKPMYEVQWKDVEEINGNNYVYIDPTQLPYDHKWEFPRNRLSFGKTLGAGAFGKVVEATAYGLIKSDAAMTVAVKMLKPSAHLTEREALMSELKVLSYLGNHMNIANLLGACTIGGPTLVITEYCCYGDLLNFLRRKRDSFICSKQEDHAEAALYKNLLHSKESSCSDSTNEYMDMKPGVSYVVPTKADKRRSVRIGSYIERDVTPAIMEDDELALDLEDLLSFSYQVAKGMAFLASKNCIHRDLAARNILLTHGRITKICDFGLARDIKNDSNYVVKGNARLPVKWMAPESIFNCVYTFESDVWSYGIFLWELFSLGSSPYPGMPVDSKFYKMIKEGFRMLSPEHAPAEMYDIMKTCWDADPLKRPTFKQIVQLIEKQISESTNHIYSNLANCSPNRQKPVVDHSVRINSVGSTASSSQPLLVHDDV
T1 sequence (P16591 whole entry): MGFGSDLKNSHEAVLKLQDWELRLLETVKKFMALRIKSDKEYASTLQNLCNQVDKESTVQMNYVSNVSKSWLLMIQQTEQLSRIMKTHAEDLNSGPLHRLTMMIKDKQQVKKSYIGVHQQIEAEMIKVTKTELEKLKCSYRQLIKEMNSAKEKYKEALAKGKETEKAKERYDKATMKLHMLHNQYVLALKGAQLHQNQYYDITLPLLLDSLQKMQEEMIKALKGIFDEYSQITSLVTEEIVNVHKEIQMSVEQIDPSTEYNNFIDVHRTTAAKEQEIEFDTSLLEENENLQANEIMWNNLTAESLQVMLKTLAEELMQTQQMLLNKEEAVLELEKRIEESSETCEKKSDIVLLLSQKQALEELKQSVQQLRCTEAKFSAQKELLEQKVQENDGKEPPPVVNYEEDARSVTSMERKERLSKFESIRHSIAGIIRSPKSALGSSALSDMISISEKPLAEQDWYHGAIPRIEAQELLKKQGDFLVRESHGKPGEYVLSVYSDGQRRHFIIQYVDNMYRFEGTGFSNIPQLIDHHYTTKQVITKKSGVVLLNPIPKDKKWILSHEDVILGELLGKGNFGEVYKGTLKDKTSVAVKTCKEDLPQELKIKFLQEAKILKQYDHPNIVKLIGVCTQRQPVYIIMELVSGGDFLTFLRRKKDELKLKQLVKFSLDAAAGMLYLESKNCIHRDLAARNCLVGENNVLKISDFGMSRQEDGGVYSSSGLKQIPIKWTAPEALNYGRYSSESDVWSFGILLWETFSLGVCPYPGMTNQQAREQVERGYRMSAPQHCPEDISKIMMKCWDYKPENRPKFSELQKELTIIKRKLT
T6 sequence (P51957 whole entry): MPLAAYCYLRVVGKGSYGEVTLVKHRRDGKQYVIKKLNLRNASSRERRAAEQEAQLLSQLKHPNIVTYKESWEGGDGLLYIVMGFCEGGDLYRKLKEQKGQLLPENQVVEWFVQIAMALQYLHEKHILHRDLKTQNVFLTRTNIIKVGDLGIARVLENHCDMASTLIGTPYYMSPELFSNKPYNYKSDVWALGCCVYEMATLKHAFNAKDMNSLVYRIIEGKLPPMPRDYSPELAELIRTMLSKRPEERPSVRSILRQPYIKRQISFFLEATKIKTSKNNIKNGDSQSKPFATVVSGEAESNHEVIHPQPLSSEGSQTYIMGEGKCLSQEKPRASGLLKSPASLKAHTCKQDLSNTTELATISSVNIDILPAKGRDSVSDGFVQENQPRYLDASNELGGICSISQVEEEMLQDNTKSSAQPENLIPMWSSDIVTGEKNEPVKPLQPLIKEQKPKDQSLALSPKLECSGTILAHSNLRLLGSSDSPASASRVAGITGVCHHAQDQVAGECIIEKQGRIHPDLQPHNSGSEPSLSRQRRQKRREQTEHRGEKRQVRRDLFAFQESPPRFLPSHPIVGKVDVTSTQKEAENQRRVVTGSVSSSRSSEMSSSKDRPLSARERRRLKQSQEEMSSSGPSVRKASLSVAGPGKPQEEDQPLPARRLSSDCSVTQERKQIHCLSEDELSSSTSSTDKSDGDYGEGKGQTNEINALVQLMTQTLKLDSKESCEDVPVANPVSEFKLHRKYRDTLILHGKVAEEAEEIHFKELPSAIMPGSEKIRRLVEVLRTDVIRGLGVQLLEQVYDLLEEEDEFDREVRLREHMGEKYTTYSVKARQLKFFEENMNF
T2 sequence (P09769 whole entry): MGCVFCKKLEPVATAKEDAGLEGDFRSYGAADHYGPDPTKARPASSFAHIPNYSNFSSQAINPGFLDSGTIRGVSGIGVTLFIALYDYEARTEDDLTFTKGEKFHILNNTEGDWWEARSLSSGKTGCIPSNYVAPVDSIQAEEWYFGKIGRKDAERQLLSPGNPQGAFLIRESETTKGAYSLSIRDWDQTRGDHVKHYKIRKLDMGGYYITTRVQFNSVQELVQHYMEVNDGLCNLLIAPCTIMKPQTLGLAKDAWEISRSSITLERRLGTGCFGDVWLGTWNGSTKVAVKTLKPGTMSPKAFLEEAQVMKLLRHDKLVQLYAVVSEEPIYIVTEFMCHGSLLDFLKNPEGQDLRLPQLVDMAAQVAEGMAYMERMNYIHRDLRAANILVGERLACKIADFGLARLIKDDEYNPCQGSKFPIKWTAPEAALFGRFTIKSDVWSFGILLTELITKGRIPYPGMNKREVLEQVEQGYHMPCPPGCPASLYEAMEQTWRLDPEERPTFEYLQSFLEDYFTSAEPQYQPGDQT
T5 sequence (O95819 whole entry): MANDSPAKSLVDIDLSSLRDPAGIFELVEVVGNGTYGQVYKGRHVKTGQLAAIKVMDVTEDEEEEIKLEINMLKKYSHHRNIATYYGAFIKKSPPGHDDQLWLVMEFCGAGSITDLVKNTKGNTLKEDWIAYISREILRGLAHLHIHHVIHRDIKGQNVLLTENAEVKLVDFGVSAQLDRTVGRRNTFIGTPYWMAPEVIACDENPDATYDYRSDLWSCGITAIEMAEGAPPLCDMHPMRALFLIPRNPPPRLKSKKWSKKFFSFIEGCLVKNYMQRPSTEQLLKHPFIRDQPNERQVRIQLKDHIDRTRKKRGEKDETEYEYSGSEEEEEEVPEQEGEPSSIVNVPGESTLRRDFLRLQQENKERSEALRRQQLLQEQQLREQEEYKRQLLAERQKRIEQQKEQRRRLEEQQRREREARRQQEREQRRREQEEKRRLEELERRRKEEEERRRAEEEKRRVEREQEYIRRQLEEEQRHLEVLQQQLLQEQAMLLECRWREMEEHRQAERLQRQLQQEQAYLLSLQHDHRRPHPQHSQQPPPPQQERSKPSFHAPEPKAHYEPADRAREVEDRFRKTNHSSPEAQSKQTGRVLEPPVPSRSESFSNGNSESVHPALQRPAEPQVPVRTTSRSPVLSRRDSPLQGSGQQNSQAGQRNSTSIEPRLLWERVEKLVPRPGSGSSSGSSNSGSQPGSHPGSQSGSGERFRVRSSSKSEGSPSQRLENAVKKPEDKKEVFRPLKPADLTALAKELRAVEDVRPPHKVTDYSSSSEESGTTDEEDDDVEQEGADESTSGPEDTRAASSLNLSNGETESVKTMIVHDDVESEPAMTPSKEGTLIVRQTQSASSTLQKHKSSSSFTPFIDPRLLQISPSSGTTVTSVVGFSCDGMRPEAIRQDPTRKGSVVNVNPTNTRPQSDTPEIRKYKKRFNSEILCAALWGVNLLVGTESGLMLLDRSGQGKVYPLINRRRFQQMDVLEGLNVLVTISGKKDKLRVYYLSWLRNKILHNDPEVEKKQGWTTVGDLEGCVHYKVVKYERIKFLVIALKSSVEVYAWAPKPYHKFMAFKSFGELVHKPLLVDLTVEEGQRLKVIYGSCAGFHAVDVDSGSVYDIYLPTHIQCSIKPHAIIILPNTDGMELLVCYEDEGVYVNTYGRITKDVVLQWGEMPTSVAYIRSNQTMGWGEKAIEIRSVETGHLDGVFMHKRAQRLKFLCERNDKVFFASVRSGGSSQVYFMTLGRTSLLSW

Row | SMILES | remaining binding at 1 µM (FER) | remaining binding at 1 µM (FGR) | remaining binding at 1 µM (FLT3(K663Q)) | remaining binding at 1 µM (KIT(V559D, V654A)) | remaining binding at 1 µM (MAP4K4) | remaining binding at 1 µM (NEK4) | AUC(0-t) [1] | Cmax [1] | half-life [1] | day after the administration on which all subjects died (FIG. 3) ([2]; 25 mg/kg oral once a day for 10 days) | day after the administration on which all subjects died (FIG. 3) ([2]; 50 mg/kg oral once a day for 10 days) | day after the administration on which all subjects died (FIG. 3) ([2]; 100 mg/kg oral once a day for 10 days) | dose dependence of luminescence signal (FIG. 2) ([2]; 25, 50, 100 mg/kg oral once a day for 10 days) | luminescence values in optical images compared to the vehicle group (FIG. 1) ([2]; all treated groups, oral once a day for 10 days, images days 0, 4, 11, 18) | luminescence signals emitted from blood cancer cells compared to the vehicle group (FIG. 2) ([2]; day 18 after administration, 25, 50, 100 mg/kg oral)
1 | Cc1cn(-c2cc(NC(=O)c3cc(C#Cc4cnc5c(Nc6cnn(C)c6)cccn45)c(C)cc3F)cc(C(C)(C)C#N)c2)cn1 [Example 1, N-(3-(2-cyanopropane-2-yl)-5-(4-methyl-1H-imidazol-1-yl)phenyl)-2-fluoro-4-methyl-5-((8-((1-methyl-1H-pyrazol-4-yl)amino)imidazo[1,2-a]pyridin-3-yl)ethynyl)benzamide] | 10% | 3.5% | 10.8% | 2.9% | 0.75% | 28% | 15.9 µg·h/mL | 2 µg/mL | 3.3 h | 31 days | 32 days | 35 days | decreased dose-dependently | weak luminescence values | weak luminescence signals
2 | Cc1cn(-c2cc(NC(=O)c3cc(C#Cc4cnc5c(Nc6cnn(C)c6)cccn45)c(C)cc3F)cc(C(F)(F)F)c2)cn1 [Example 4, 2-fluoro-4-methyl-N-(3-(4-methyl-1H-imidazol-1-yl)-5-(trifluoromethyl)phenyl)-5-((8-((1-methyl-1H-pyrazol-4-yl)amino)imidazo[1,2-a]pyridin-3-yl)ethynyl)benzamide] | 71% | 12% | 2.8% | 12% | 15% | 90% |  |  |  |  |  |  |  |  | 
